In the oligonucleotide strings, read from the 5' end, every base follows the letter of its sugar. An asterisk marks phosphorothioate; unmarked linkages are phosphodiester. Other units and linkages are bracketed, terminal groups are in braces. A string of capitals states the bases alone. e = 2'-O-(2-methoxyethyl) (MOE); [5mC] = 5-methylcytosine
How the values were obtained:
[1] = system: Human IL-5 receptorα membrane form mRNA; test: Human IL-5 receptorα membrane form mRNA expression (18 hr); format: cell-based; set-up: % INHIB'N, human IL-5 receptorα membrane form mRNA / % of CONTROL, human IL-5 receptorα membrane form mRNA: concentration or dose not given beside the values; details: 18 hr
From the text: mRNA transcripts encoding the membrane form of the human IL-5 receptorα contain exons 1-10 and 12-14. Exon 11 is spliced out. It is, therefore, possible to target sequences in exons 1-10 which are common to both soluble and membrane forms of the receptor, or to selectively target sequences only present in the membrane form (exons 12-14). Oligonucleotides were also designed to target various intron/exon boundaries downstream of exon 11, with the intention of preventing successful splicing out of exon 11 and thus redirecting splice products away from the membrane form and in favor of the soluble form of IL-5 receptorα.
(§1) A series of oligonucleotides were designed to target various splice sites or (intron-exon boundaries) in the IL-5 receptor mRNA.

[2] = system: Human IL-5 receptorα soluble form mRNA; test: Human IL-5 receptorα soluble form transcript, Northern blot; format: cell-based; details: Northern blot analysis
From the text: ISIS 16746, 16748 and 16755 inhibited IL-5 receptor mRNA expression by over 50% and are therefore preferred in this assay. […] Thus it is believed that ISIS 16755 redirects splicing in favor of the membrane form, as is consistent with data obtained with other non-RNAse H (e.g., uniform 2′-methoxyethoxy) oligonucleotides targeted to splice sites.

Human IL-5 receptorα = Human IL-5 receptorα protein expression on the cell surface (36 hr), TF-1 cells; format: cell-based; set-up: % INHIB, human IL-5 receptorα protein on the cell surface / % of CONTROL, human IL-5 receptorα protein on the cell surface: concentration or dose not given beside the values; details: 36 hr
From the text: as §1
ISIS 16746, 16748, 16755 and 16758 inhibited human IL-5 receptorα protein by over 50% in this assay and are therefore preferred. ISIS 16758 and 16755 were chosen for further study.

human bcl-x mRNA [3] = test: Total bcl-x mRNA and bcl-xs/bcl-xl ratio in A549 cells, RNase protection; format: cell-based
From the text: In accordance with the present invention, a series of oligonucleotides were designed to target different regions of human bcl-x RNA, using published sequences (Boise, L. H., et al., 1993, Cell 74, 597-608; Genbank Accession No. L20121, locus name “HSBCLXL,” incorporated herein as SEQ ID NO: 39). Antisense oligonucleotides were designed to target areas of exon 1 and exon 2 of human bcl-x, particularly around the exon 1/exon 2 splice site and in sequence regions present in bcl-xl but not in bcl-xs. All backbone linkages are phosphorothioates; All 2′MOE cytosines are 5-methylcytosines.
Oligonucleotides were evaluated for their respective effects on bcl-xs and bcl-xl3 mRNA levels in A549 cells along with total bcl-x mRNA levels, using the RIBOQUANT™ RNase protection kit (Pharmingen, San Diego Calif.). All assays were performed according to manufacturer's protocols.
A “walk” was done in this region with 20mer 2′-MOE phosphorothioate oligonucleotides targeted to sequences whose 5′ ends were 24, 26, 29, 31, 33, 37, 39, 41, 43, 44, 45 and 47 bases upstream of the splice site. These oligonucleotides were screened as before at a dose of 200 nM oligonucleotide for effect on short and long bcl-x transcripts.

bax mRNA = bax mRNA by RNAse protection assay; format: cell-based
Protocol: ISIS 22783 was tested by RNAse protection assay for ability to inhibit bax, another apoptotic gene. It had no effect on bax mRNA levels.

murine bcl-x mRNA [4] = test: bcl-xs mRNA induction in mouse cell lines bEND, AML12 and Hepa; format: cell-based
From the text: (§2) ISIS 22783 is also fully complementary to the murine bcl-x mRNA which makes it useful for animal studies.

murine bcl-x mRNA [5] = test: bcl-xs mRNA expression in vivo in mouse liver; details: preliminary experiments
From the text: as §2

A549 cells [6] = test: Sensitization of A549 cells to UV-induced cell death, propidium iodide staining; format: cell-based, human; details: 100 nM oligo
Protocol: A549 cells were treated with 100 nM ISIS 22783 or the 5-mismatch ISIS 26080 and exposed to ultraviolet (UV) radiation. The percent apoptotic cells was quantitated by propidium iodide staining according to standard methods.

A549 cells [7] = test: Sensitization of A549 cells to cisplatinum-induced cell death, propidium iodide staining; format: cell-based, human; details: 100 nM oligo
Protocol: A549 cells were treated with 100 nM ISIS 22783 or the 5-mismatch ISIS 26080 and cisplatinum at various doses. The percent apoptotic cells was quantitated by propidium iodide staining according to standard methods.

A549 cells [8] = test: Sensitization of A549 cells to taxol-induced cell death, propidium iodide staining; format: cell-based, human; details: 100 nM oligo
Protocol: A549 cells were treated with 100 nM ISIS 22783 or the 5-mismatch ISIS 26080 and taxol at various doses. The percent apoptotic cells was quantitated by propidium iodide staining according to standard methods.

human bcl-x mRNA [9] = test: Total bcl-x mRNA and bcl-xs/bcl-xl ratio in A549 cells, RNase protection; format: cell-based; remark: listed apart in the source

## ISIS 16755: GAACACTTACATTTTACAGA, SEQ ID 34; E12/I12; 2′-MOE pattern not visible (antisense eG*eA*eA*e[5mC]*eA*e[5mC]*eT*eT*eA*e[5mC]*eA*eT*eT*eT*eT*eA*e[5mC]*eA*eG*eA)
[1]
  % INHIB'N, human IL-5 receptorα membrane form mRNA: over 50%
[2]
  inhibition of the soluble form transcript: without significantly inhibiting the soluble form
Human IL-5 receptorα
  % INHIB, human IL-5 receptorα protein on the cell surface: over 50%

## ISIS 22783: CTGGATCCAAGGCTCTAGGT, SEQ ID 44; fully 2′-MOE, full-phosphorothioate; bcl-xl Exon 1L 664-683 (e[5mC]*eT*eG*eG*eA*eT*e[5mC]*e[5mC]*eA*eA*eG*eG*e[5mC]*eT*e[5mC]*eT*eA*eG*eG*eT)
Human bcl-x mRNA [3]; A549 cells
  time after treatment at which bcl-xs induction with concurrent bcl-xL reduction begins: 2 to 4 h
Human bcl-x mRNA [3]; A549 cells (Table 13)
  % CRTL total bcl-x: without reducing the total bcl-x mRNA level
Human bcl-x mRNA [3]; A549 cells, no oligo 17.56
  bcl-xs/bcl-xl (%): 293%
Human bcl-x mRNA [3]; Oligo Concentration 200 (unit not given)
  approx. ratio of bcl-xs/bcl-xl: ~8.5
Bax mRNA
  effect on bax mRNA levels: no effect
Murine bcl-x mRNA [4]
  induction of bcl-xs mRNA: induction of bcl-xs mRNA
Murine bcl-x mRNA [5]
  bcl-xs mRNA expression in mouse liver: slight induction of bcl-xs mRNA expression
A549 cells [6]; UV 0 mJ/M^2
  % Apoptotic cells (approx): ~2%
A549 cells [6]; UV 50 mJ/M^2
  % Apoptotic cells (approx): ~4%
A549 cells [6]; UV 100 mJ/M^2
  % Apoptotic cells (approx): ~33%
A549 cells [6]; UV 200 mJ/M^2
  % Apoptotic cells (approx): ~27%
A549 cells [7]; cisplatinum 0 μg/ml
  % Apoptotic cells (approx): ~3%
A549 cells [7]; cisplatinum 1 μg/ml
  % Apoptotic cells (approx): ~6%
A549 cells [7]; cisplatinum 10 μg/ml
  % Apoptotic cells (approx): ~13%
A549 cells [7]; cisplatinum 50 μg/ml
  % Apoptotic cells (approx): ~27%
A549 cells [8]; taxol 0 μg/ml
  % Apoptotic cells (approx): ~8%
A549 cells [8]; taxol 5 μg/ml
  % Apoptotic cells (approx): ~8%
A549 cells [8]; taxol 10 μg/ml
  % Apoptotic cells (approx): ~15%
A549 cells [8]; taxol 30 μg/ml
  % Apoptotic cells (approx): ~26%
Human bcl-x mRNA [9]; Oligo Concentration 100 (unit not given)
  approx. ratio of bcl-xs/bcl-xl: ~4.5
Human bcl-x mRNA [9]; Oligo Concentration 400 (unit not given)
  approx. ratio of bcl-xs/bcl-xl: ~18

Source: patent US20020049173A1, “Alteration of cellular behavior by antisense modulation of mRNA processing” (priority 1999, published 2002)
